From the Deep4Chem optical property database

Test: solvent given as SMILES

With `F[B-]1(F)n2cccc2C(c2c3ccccc3cc3ccccc23)=C2C=CC=[N+]21` the emission maximum (in CC#N) was 519 nm, the emission maximum (in CCCCCC) was 521 nm and the emission maximum (in CCO) was 520 nm. The emission maximum (in CN(C)C=O) was 524 nm, the emission maximum (in Cc1ccccc1) was 525 nm and the emission maximum (in ClCCl) was 520 nm.

With `O=C1/C(=C2\Sc3ccccc3C2=O)Sc2ccccc21` the emission maximum (in C1COCCO1) was 590 nm, the emission maximum (in CN(C)C=O) was 607 nm and the emission maximum (in CO) was 624 nm. The emission maximum (in CS(C)=O) was 614 nm and the emission maximum (in c1ccccc1) was 598 nm.

`O=S(=O)(c1ccc2c(c1)c1ccccc1n2-c1ccccc1)c1ccc2c(c1)c1ccccc1n2-c1ccccc1` showed an emission maximum (in ClCCl) of 372 nm.

`COc1nc(Nc2cc3ccc4cccc5ccc(c2)c3c45)nc(OC)n1` showed an emission maximum (in CC#N) of 393 nm, an emission maximum (in CCCCOCCCC) of 393 nm and an emission maximum (in CO) of 392 nm.

In the case of `F[B-]1(F)n2c(Cl)c(Cl)c(Br)c2C(Cl)=C2C(Br)=C(Cl)C(Cl)=[N+]21`, the emission maximum (in ClCCl) is reported as 560 nm.

Compound `COc1cc(-c2cnc(-c3cnc4ccccc4c3)o2)cc(OC)c1OC` has an emission maximum (in ClCCl) of 458 nm.

For `N#Cc1c(-n2c3ccccc3c3ccccc32)c(C#N)c(-n2c3ccccc3c3ccccc32)c(-n2c3ccccc3c3ccccc32)c1-n1c2ccccc2c2ccccc21`, the emission maximum (in Cc1ccccc1) was 507 nm.

Work on `CCCCCCCCOc1cc(/C=C/c2cc(OCCCCCCCC)c(/C=C/c3cc(OCCCCCCCC)c(/C=C/c4ccncc4)cc3OCCCCCCCC)cc2OCCCCCCCC)c(OCCCCCCCC)cc1/C=C/c1ccncc1` yielded an emission maximum (in ClCCl) of 570 nm.

`Cc1cc(C2=C(c3cc(C)sc3C)P(=O)(c3ccccc3)c3ccccc32)c(C)s1` (stereo unspecified) showed an emission maximum (in C1CCOC1) of 468 nm.

`CC(C)(C)Nc1c(-c2ccc(-c3cc(=O)cc(-c4ccccc4)o3)cc2)nc2ccccn12` gave an emission maximum (in ClCCl) of 515 nm.

Compound `COc1ccc(-n2c3c4ccccc4nc(-c4ccc(C#N)cc4)c3c3c2c2c(-c4ccc(C#N)cc4)nc4ccccc4c2n3-c2ccc(OC)cc2)cc1` has an emission maximum (in ClC(Cl)Cl) of 513 nm.

In the case of `CN1CCCc2cc3c(C(F)(F)F)cc(=O)oc3cc21`, the emission maximum (in C1CCCCC1) is reported as 439 nm, the emission maximum (in CC#N) is reported as 510 nm and the emission maximum (in CCO) is reported as 515 nm.

Compound `CCC1=C(C)C(=O)n2c1cc1c(C)c(CC(=O)O)c(C)n1c2=O` has an emission maximum (in CO) of 535 nm, an emission maximum (in CS(C)=O) of 505 nm and an emission maximum (in ClC(Cl)Cl) of 485 nm. For the same compound, the emission maximum (in c1ccccc1) was 465 nm.

For `FC(F)(F)c1cc2n(n1)[B-](c1ccccc1)(c1ccccc1)[n+]1ccc3ccccc3c1-2`, the emission maximum (in C1CCCCC1) was 410 nm, the emission maximum (in Cc1ccccc1) was 410 nm and the emission maximum (in ClCCl) was 404 nm.

Work on `F[B-]1(F)n2c(cc3sc4ccccc4c32)C(c2ccc(I)cc2)=C2C=c3sc4ccccc4c3=[N+]21` yielded an emission maximum (in ClC(Cl)Cl) of 673 nm.

`CCC1=C(C)C2=Cc3c4ccccc4c4n3[B-](c3ccncc3)(Oc3ccccc3-4)[N+]2=C1C` (stereo unspecified) showed an emission maximum (in CC#N) of 633 nm, an emission maximum (in CCCCCC) of 636 nm and an emission maximum (in Cc1ccccc1) of 639 nm. The emission maximum (in ClCCl) was 639 nm.

Work on `C(/C=C/Nc1cccc2ccccc12)=[NH+]c1cccc2ccccc12` yielded an emission maximum (in CS(C)=O) of 527 nm.

For `CCCC1=Cc2nc1ccc1[nH]c(cc1CCC)c1nc(c(O)cc3[nH]c2cc3CCC)C(CCC)=C1`, the emission maximum (in Cc1ccccc1) was 683 nm.

Work on `C(=C\c1nc2ccccc2s1)/c1ccc(-c2nc3c4cccnc4c4ncccc4c3[nH]2)cc1` yielded an emission maximum (in C1CCOC1) of 469 nm, an emission maximum (in CC#N) of 485 nm and an emission maximum (in CO) of 488 nm. The emission maximum (in ClCCl) was 472 nm.

`C(#Cc1ccc2ncsc2c1)c1ccc(N(c2ccccc2)c2ccccc2)cc1` gave an emission maximum (in Cc1ccccc1) of 428 nm.

With `CC(C)(C)c1ccc(-c2nc3c4ccc(-c5ccc6ccc7cccc8ccc5c6c78)cc4c4cc(-c5ccc6ccc7cccc8ccc5c6c78)ccc4c3n2-c2ccc(C(C)(C)C)cc2)cc1` the emission maximum (in C1CCOC1) was 442 nm, the emission maximum (in C1COCCO1) was 432 nm and the emission maximum (in CC#N) was 460 nm. It also gave an emission maximum (in CCCCCC) of 428 nm, an emission maximum (in CCCCOCCCC) of 427 nm and an emission maximum (in CCN(CC)CC) of 428 nm. For the same compound, the emission maximum (in CCOC(C)=O) was 440 nm, the emission maximum (in CCOCC) was 432 nm and the emission maximum (in CN(C)C=O) was 459 nm. The emission maximum (in Cc1ccccc1) was 433 nm, the emission maximum (in ClC=C(Cl)Cl) was 437 nm and the emission maximum (in ClCCl) was 450 nm.

Work on `CC(C)c1cccc(C(C)C)c1N1C(=O)c2ccc3cc4c(cc5ccc6c7c(ccc4c57)C(=O)N(c4c(C(C)C)cccc4C(C)C)C6=O)c4ccc(c2c34)C1=O` yielded an emission maximum (in ClCCl) of 668 nm.

Compound `O=C(O)c1ccccc1-c1nc(-c2ccccc2)c2ccccn12` has an emission maximum (in CC#N) of 494 nm.

`N#C/C(=C\c1cc(/C=C(\C#N)c2ccc(C(F)(F)F)cc2)c(-c2ccc(N(c3ccccc3)c3ccccc3)cc2)cc1-c1ccc(N(c2ccccc2)c2ccccc2)cc1)c1ccc(C(F)(F)F)cc1` gave an emission maximum (in C1CCCCC1) of 478 nm, an emission maximum (in C1CCOC1) of 587 nm and an emission maximum (in CCCCCC) of 473 nm. For the same compound, the emission maximum (in CCOC(C)=O) was 581 nm, the emission maximum (in Cc1ccccc1) was 515 nm and the emission maximum (in ClC(Cl)Cl) was 553 nm. For the same compound, the emission maximum (in ClCCl) was 594 nm.

In the case of `Cn1ccc(-c2nc3ccccc3nc2/C=C/N2CCCC2)c1`, the emission maximum (in CC#N) is reported as 579.08 nm.
